Source: US6399353B1, “Papillomavirus: biosynthetic process and assays” (priority 1992, dated 2002)

Experiments:
[1] = system: L1 major capsid protein in CIN-612 rafts; experiment: Immunostaining for L1 major capsid protein in CIN-612 raft cross-sections; assay type: cell-based; settings: CIN-612 raft cultures, TPA treated; untreated showed no specific nuclear staining
Method: (§1) Raft cultures were grown for 16 days then harvested, fixed in paraformaldehyde, embedded in paraffin and sectioned for immunohistostaining.
In vivo expression of viral late genes is only detected in the highly differentiated suprabasal cells of infected tissue (Pfister, et al., 1987). Using antiserum to the HPV 16 L1 major capsid protein (Bedell, et al., 1991), which cross reacts with the L1 major capsid protein of various HPV types (Bedell, et al., 1991), the production of the L1 major capsid protein in the CIN-612 rafts grown with or without TPA treatment was determined. CIN-612 raft cross-sections were examined by immunostaining with the VECTASTAIN Elite ABC Kit (Vector Laboratories. Inc., Burlingame, Calif.) after treatment with antiserum against the major late capsid protein, L1.

CIN-612 cells = experiment: Immunostaining for keratin 10 and filaggrin in CIN-612 raft cultures; assay type: cell-based
HPV 31b = experiment: Virion production in CIN-612 raft cultures (electron microscopy, isopycnic gradient, Southern blot); assay type: cell-based, Human papillomavirus
Method: as §1
Raft tissue cross-sections were fixed with glutaraldehyde and stained with uranyl acetate. […] Virions were commonly observed in bilobulated koilocytic and dyskeratotic nuclei in which the nuclear chromatin had condensed at the nuclear envelope. At higher magnification the particles could be seen superimposed on heterochromatin, as is often seen in vivo. These particles are not seen in nuclei of untreated CIN-612 raft cultures. Virions approximately 54 nm in diameter were also prevalent in the stratum corneum of raft cultures. […] Similar results have been obtained with material from five separate experiments with different passages of CIN-612 cells.
Because infectious assays have not yet been developed for HPV, we sought to determine if the structures we observed in nuclei of CIN-612 cells were indeed virions. […]
Eight TPA-treated raft cultures were harvested and virions were isolated following a series of low speed and high speed centrifugations. […] Fractions from the bottom of the gradient through fractions determined positive for HPV 31b DNA by dot blot hybridization were dialyzed and examined by Southern blot hybridization. […]

[2] = CIN-612 rafts, 16 nM TPA, 16 to 24 h every four days, grown 16 days, immunostaining

CCCCCCCCCCCCCC(=O)O[C@@H]1[C@@H](C)[C@@]2(O)[C@@H](C=C(CO)C[C@]3(O)C(=O)C(C)=C[C@@H]23)[C@@H]2C(C)(C)[C@]12OC(C)=O [TPA, 12-O-tetradecanoylphorbol-13-acetate]
nuclear staining with L1 antiserum (major late capsid protein) [1]: specific nuclear staining was seen in the stratum granulosum and in the stratum corneum | induction of differentiation (CIN-612 cells; CIN-612 raft cultures, 16 nM TPA in medium, 16 to 24 h every four days): Reproducible induction of differentiation | filaggrin expression (CIN-612 cells; [2]): strong expression of filaggrin was observed throughout the stratum granulosum and into the stratum corneum | keratin 10 expression (CIN-612 cells; [2]): expressed throughout most of the suprabasal layers, including the stratum corneum | expression of physiological markers of keratinocyte differentiation (CIN-612 cells; TPA added to media of organotypic (raft) cultures): increased expression | production of virions (HPV 31b; TPA added to media of organotypic (raft) cultures, electron microscopy): induced production of virions | yield of viral particles (HPV 31b; eight TPA-treated raft cultures, CsCl gradient fractions (lanes 7 and 8), estimated from copy number standards): at least 40 million
